Data set [1] addresses T1, CD4 (Homo sapiens, UniProt P01730).
T1 construct: PBL were prepared by density gradient centrifugation; endogenous in cells; host or cells: human peripheral blood lymphocytes (PBL)
The experiment in a line: Dose-response of inhibition of αCD4 binding in presence (RPMI 1640 with 5% serum) and absence (PBS) of serum. The conditions noted are these: RPMI 1640 with 5% serum versus PBS; FIG. 1. The protocol:
(§1) For these binding assays, PBL were prepared by density gradient centrifugation, and the effect of the azo dyes on the binding of anti-CD4-FITC (Becton Dickinson, Mountain View, Calif.) was measured (Weaver et al., supra). Cells were treated with an azo dye for at least 10 minutes at room temperature, or for more than 30 minutes at 4° C., and were then contacted with FITC-labeled antibody. Binding was measured by quantitating cell bound fluorescence using flow cytometry.

Data set [2] has as its target T2, HIV rgp120 binding to CD4 (Homo sapiens, UniProt P01730).
T2 construct: PBL were prepared by density gradient centrifugation; endogenous in cells; host or cells: human peripheral blood lymphocytes (PBL)
Put plainly: Inhibition of HIV rgp120 binding to CD4 on PBL, detected with anti-rgp120-FITC. The conditions noted are these: PBS, % logarithmic mean channel number of rgp120 binding detected by αrgp120-FITC. The protocol: as §1, with “Since anti-Leu3a (αCD4) and recombinant HIV coat protein (rgp120) bind to the same site on the CD4 molecule, interference in binding of CD4 confirms interference in HIV binding to αCD4 (Weaver et al., AIDS Res. Human Retrovir., 6, 1125-1130 (1990)). For” for “For”
The ability of Direct Orange 26, Direct Red 23, Direct Red 24, and Direct Red 26 to inhibit the binding of HIV rgp120 to CD4 was determined using monoclonal anti-rgp120-FITC (Genentech, Inc., San Francisco, Calif.) to detect recombinant HIV coat protein in the binding assay described in Example 1.

The target of data set [3] is T1, CD4. Put plainly: Inhibition of binding of αCD4-FITC (anti-Leu3a) to PBL, flow cytometry. The protocol:
as §1

Data set [4] concerns the target T3, CD8 (αCD8 binding to PBL) (Homo sapiens, UniProt P01732).
T3 construct: endogenous in cells; host or cells: human peripheral blood lymphocytes (PBL)
Put plainly: Specificity: binding of αCD8-FITC to PBL. The conditions noted are these: PBS, % logarithmic mean channel number of αCD8-FITC binding, read-out: % Control Binding (αCD8). As to the method:
as §1, with “Since anti-Leu3a (αCD4) and recombinant HIV coat protein (rgp120) bind to the same site on the CD4 molecule, interference in binding of CD4 confirms interference in HIV binding to αCD4 (Weaver et al., AIDS Res. Human Retrovir., 6, 1125-1130 (1990)). For” for “For”
The specificity of the dyes was confirmed by testing their ability to interfere with the binding of two other monoclonal antibodies, αCD3 and αCD8, to PBL using the binding assay described in Example 1.

Data set [5] is described as follows: Viability of PBL after 72 hour culture with αTCR stimulation, propidium iodide exclusion. The format is cell-based, human. The conditions noted are these: pbl. The protocol: (§2) Cells were then washed once in PBS, and resuspended in PBS with 3 μg/ml propidium iodide. After 10 minutes incubation, the cells were analyzed by flow cytometry. Live cells were defined as those excluding propidium iodide.

The next data set concerns PBL. The data set is described as above. It is filed as cell-based, human. As to the method: as §2
Data set [6] addresses T4, CD3 (αCD3 binding to PBL) (Homo sapiens, UniProt P07766).
T4 construct: endogenous in cells; host or cells: human peripheral blood lymphocytes (PBL)
The experiment in a line: Specificity: binding of αCD3-FITC to PBL. The conditions noted are these: PBS, % logarithmic mean channel number of αCD3-FITC binding, read-out: % Control Binding (αCD3).

The subject of a further data set is HIV isolate LAV-1BR. Put plainly: HIV replication in phytohemagglutinin-stimulated human PBL, intracellular p24 ELISA. It is filed as cell-based. The conditions noted are these: six days culture; for pg/ml HIV p24: virus only 101,000. From the text:
The ability of the azo dyes to negatively affect HIV replication was verified after six days of culturing the HIV isolate LAV-1BR in phytohemagglutinin-stimulated human PBL. For this experiment, the amount of intracellular HIV p24 protein in cell lysates was quantitated with use of an HIV p24 enzyme linked immunosorbent assay kit (Cellular Products, Buffalo, N.Y.) as described in Anand et al., AIDS Res. Human Retrovir., 6, 679-689 (1990). This measure of p24 protein was considered an indication of HIV replication. Aurintricarboxylic acid (ATA; Sigma Chemical Co., St. Louis, Mo.) was included in this experiment as a positive control, and the solvent DMSO was utilized for further comparative purposes.
(An ELISA detects its analyte on a solid surface through an enzyme-linked reagent.)

Where [7] appears, read: 20 μM, PBS, % logarithmic mean channel number of αCD4-FITC binding.
Where [8] appears, read: read-out: % Control Binding (HIV rgp120).

T4 sequence (P07766 23-207): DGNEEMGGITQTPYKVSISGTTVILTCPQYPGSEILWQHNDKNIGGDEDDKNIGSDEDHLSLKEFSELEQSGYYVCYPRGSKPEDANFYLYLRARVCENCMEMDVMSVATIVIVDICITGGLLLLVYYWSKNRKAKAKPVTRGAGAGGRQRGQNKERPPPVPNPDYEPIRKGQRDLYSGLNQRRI
T4 sequence (P04234 22-171 partner): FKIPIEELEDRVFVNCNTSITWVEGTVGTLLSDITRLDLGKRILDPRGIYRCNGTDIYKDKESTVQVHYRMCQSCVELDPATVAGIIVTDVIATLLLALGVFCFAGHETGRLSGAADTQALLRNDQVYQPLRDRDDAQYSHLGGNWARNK
T4 sequence (P09693 23-182 partner): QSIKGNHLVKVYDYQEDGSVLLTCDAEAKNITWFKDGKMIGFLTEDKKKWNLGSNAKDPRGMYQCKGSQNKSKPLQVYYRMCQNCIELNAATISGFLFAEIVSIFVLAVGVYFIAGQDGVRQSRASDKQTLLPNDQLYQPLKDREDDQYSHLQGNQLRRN
T4 sequence (P20963 22-164 partner): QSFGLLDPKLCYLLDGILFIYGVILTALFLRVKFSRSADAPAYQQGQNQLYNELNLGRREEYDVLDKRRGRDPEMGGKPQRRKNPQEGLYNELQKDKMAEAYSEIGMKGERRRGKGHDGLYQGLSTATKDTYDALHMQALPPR
T3 sequence (P01732 22-235): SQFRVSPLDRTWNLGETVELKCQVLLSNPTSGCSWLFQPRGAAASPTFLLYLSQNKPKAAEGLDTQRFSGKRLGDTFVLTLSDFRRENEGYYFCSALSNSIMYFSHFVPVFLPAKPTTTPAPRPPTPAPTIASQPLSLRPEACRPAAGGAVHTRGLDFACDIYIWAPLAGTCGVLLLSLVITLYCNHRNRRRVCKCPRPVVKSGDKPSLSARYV
T3 sequence (P10966 22-210 partner): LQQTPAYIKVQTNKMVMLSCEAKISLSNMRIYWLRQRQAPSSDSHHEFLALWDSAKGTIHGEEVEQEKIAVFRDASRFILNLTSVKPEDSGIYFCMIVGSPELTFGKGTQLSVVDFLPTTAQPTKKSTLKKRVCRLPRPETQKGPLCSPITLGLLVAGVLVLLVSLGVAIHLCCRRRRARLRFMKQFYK

Consider `O=S(=O)([O-])c1ccc2c(N=Nc3ccccc3)ccc(N=Nc3ccc(Nc4ccccc4)c4c(S(=O)(=O)[O-])cccc34)c2c1.[Na+].[Na+]` [Acid Blue 116], for which, at CD4 [1], the “Fold more dye needed to inhibit αCD4 binding in the presence of serum” value is recorded as “about 100 ×”.

Regarding `Cc1ccccc1N=Nc1ccc(N=Nc2c(O)c(S(=O)(=O)[O-])cc3cc(S(=O)(=O)[O-])ccc23)c(C)c1.[Na+].[Na+]` [Acid Red 115], the “Fold more dye needed to inhibit αCD4 binding in the presence of serum” value on CD4 [1] was “about 100 ×”.

For the compound `COc1ccccc1N=Nc1c(S(=O)(=O)[O-])cc2cc(NC(=O)Nc3ccc4c(O)c(N=Nc5ccc(S(=O)(=O)[O-])cc5C)c(S(=O)(=O)[O-])cc4c3)ccc2c1O.[Na+].[Na+].[Na+]` [Direct Red 24], the “% Control Binding (HIV rgp120)” value in data set [2] (5.0 μM) is on record as 10-15%. In addition, on CD4 [3] (20 μM), the “Inhibition of the binding of αCD4 to CD4 (in words)” value (shortened to “Inhibition of the binding of αCD4”) is “completely inhibited”. Moreover, at CD4 [3] (setting [7]), the “% Control Binding (αCD4)” value came to 0%.

For `O=C(Nc1ccc2c(O)c(N=Nc3ccccc3)c(S(=O)(=O)O)cc2c1)Nc1ccc2c(O)c(N=Nc3ccccc3)c(S(=O)(=O)O)cc2c1` [Direct Orange 26], in data set [2] (setting [8]), the remaining activity at 1 µM was 26%. Further, the remaining activity at 2.5 µM in data set [2] (2.5 μM, read-out: % Control Binding (HIV rgp120)) is 15%. In addition, the “Inhibition of the binding of αCD4” value at CD4 [3] (10 μM) is reported as “completely inhibited”. The remaining activity at 10 µM was found to be 0% on CD4 [3] (10 μM, PBS, % logarithmic mean channel number of αCD4-FITC binding, read-out: % Control Binding (αCD4)); 65% in data set [4]; 103% in data set [6]. Also, the “Fold more dye needed to inhibit αCD4 binding in the presence of serum” value on CD4 [1] is on record as “about 5 ×”. Besides, the viability at 72 h, 400 µM in data set [5] (400 μM, untreated 78.2, read-out: % Viable Cells) came to 67.5%. Also, the viability at 72 h, 800 µM in data set [5] (800 μM, untreated 78.2, read-out: % Viable Cells) was determined as 71.5%. Also, in data set [5] (400-800 μM, read-out: Reduction of viability), the cytotoxicity at 72 h was at most 10%. Further, the “Effect on PBL viability / lymphocyte proliferation (in words)” value in the data set with PBL is given as “only a slight negative effect”. Moreover, the “pg/ml HIV p24” value in the data set on HIV isolate LAV-1BR (50 μg/ml) turned out to be 71 pg/mL; in the data set on HIV isolate LAV-1BR (100 μg/ml) it was 61 pg/mL. Besides, the “Effect on HIV replication (in words)” value in the data set with HIV isolate LAV-1BR (50-100 μg/ml) is reported as “strongly decrease HIV replication”.

Take `O=C(O)C1=CC(=C(c2ccc(O)c(C(=O)O)c2)c2ccc(O)c(C(=O)O)c2)C=CC1=O` [ATA, Aurintricarboxylic acid, reference compound]: in the data set on HIV isolate LAV-1BR (50 μg/ml), the “pg/ml HIV p24” value was 1 pg/mL.

For `COc1cc(N=Nc2cc(S(=O)(=O)[O-])cc3cc(S(=O)(=O)[O-])cc(O)c23)c(C)cc1NC(=O)Nc1cc(C)c(N=Nc2cc(S(=O)(=O)[O-])cc3cc(S(=O)(=O)[O-])cc(O)c23)cc1OC.[Na+].[Na+].[Na+].[Na+]` [Direct Red 79], at CD4 [1], the “Fold more dye needed to inhibit αCD4 binding in the presence of serum” value is “about 100 ×”.

Consider `Cc1cc(-c2ccc(/N=N/c3ccc4c(S(=O)(=O)O)cc(S(=O)(=O)O)c(N)c4c3O)c(C)c2)ccc1/N=N/c1ccc2c(S(=O)(=O)O)cc(S(=O)(=O)O)c(N)c2c1O` [Evans Blue, Evans blue, reference compound], for which the remaining activity at 1 µM is 8% in data set [2] (setting [8]) and 1% at CD4 [3] (1 μM, PBS, % logarithmic mean channel number of αCD4-FITC binding, read-out: % Control Binding (αCD4)). Further, on CD4 [3] (1 μM, PBS, % logarithmic mean channel number of αCD4-FITC binding), the “% Control Binding (αCD4)” value is given as 1%.

On to `CC(=O)Nc1ccc(N=Nc2c(S(=O)(=O)O)cc3cc(NC(=O)Nc4ccc5c(O)c(N=Nc6ccccc6)c(S(=O)(=O)O)cc5c4)ccc3c2O)cc1` [Direct Red 23], for which the remaining activity at 5 µM in data set [2] (5.0 μM, read-out: % Control Binding (HIV rgp120)) is 10 to 15%. For the same compound, the “Inhibition of the binding of αCD4” value at CD4 [3] (20 μM) is listed as “completely inhibited”. Further, the remaining activity at 20 µM on CD4 [3] (20 μM, PBS, % logarithmic mean channel number of αCD4-FITC binding, read-out: % Control Binding (αCD4)) came to 0%.

As for Direct Red 26, in data set [2] (5.0 μM), the “% Control Binding (HIV rgp120)” value is given as 10-15%. Further, the “Inhibition of the binding of αCD4” value at CD4 [3] (20 μM) is recorded as “completely inhibited”. Further, the “% Control Binding (αCD4)” value at CD4 [3] (setting [7]) amounted to 0%.

These data come from patent publication US5468469A, “Methods of using azo dyes and their derivatives” (The United States of America as represented by the …, priority 1994, dated 1995).
